Measured values as given in patent US5223485A, “Anaphylatoxin-receptor ligands” (Abbott Laboratories, priority 1991, dated 1993).
Bridge positions count the residues as written; N and C are the ends. Square brackets hold non-standard residues; d marks the D form. Peptide text beside a SMILES is read from it. * marks the point of attachment. ξ: configuration not given here. X3 = CC(C)C[C@H](NC[C@H](C)N*)C(=O)N[C@H](C)C(=O)N[C@@H](CCCNC(=N)N)C(=O)O; X2 = C[C@H](CN[C@@H](CCCNC(=N)N)C(=O)O)N*; 2Nal = N[C@@H](Cc1ccc2ccccc2c1)C(=O)O; NEtPhe = CCN[C@@H](Cc1ccccc1)C(=O)O; Cha = N[C@@H](CC1CCCCC1)C(=O)O; dPen = CC(C)(S)[C@@H](N)C(=O)O; ξTic = O=C(O)C1Cc2ccccc2CN1; dNMeA = CN[C@H](C)C(=O)O; Boc = CC(C)(C)OC(=O)*; Bz = O=C(c1ccccc1)*; Ethyl(2-NH2) = NCC*; For = O=C*

The molecules below were run against T1, C5a Receptor (Homo sapiens, UniProt P21730) (assay: Anaphylatoxin receptor binding Ki determination: inhibition of 125I-C5a binding to PMNL membrane fragments). Settings: 0.03-1 nM 125I-C5a, 2.5-25 μg/mL purified PMNL membrane fragments, filtration; read-out: In vitro C5a Receptor Binding Potency Ki.
T1 construct: 2.5-25 μg/mL of purified PMNL membrane fragments; from tissue; host or cells: polymorphonuclear leukocyte (PMNL) membrane fragments
T1 sequence (P21730 1-350): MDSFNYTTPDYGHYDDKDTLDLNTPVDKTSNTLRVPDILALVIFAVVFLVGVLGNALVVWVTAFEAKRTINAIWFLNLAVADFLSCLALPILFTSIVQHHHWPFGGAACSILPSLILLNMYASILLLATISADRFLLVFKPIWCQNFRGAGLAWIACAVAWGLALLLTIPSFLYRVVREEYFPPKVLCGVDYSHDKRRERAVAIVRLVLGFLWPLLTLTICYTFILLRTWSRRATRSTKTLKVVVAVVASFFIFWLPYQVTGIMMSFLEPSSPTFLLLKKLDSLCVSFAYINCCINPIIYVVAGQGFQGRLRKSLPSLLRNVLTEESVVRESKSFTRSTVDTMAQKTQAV
Experimental: Specific inhibition of C5a binding activity of representative compounds of the present invention was measured using 0.03-1 nM ^125 I-C5a with 2.5-25 μg/mL of purified PMNL membrane fragments (Borregaard, N.; Heiple, J. M.; Simons, E. R.; and Clark, R. A. J. Cell. Biol. 1983, 97, 52-61.). Free and membrane-bound ligand were separated by filtration.

| Compound | Ki [nM] |
| --- | --- |
| CC(C)C[C@H](NC(=O)[C@H](CC1CCCCC1)NC(=O)[C@H](Cc1c[nH]c2ccccc12)NC(=O)[C@H](C)NC(=O)[C@H](CCCCN)NC(=O)[C@@H](N)Cc1ccccc1)C(=O)N[C@H](C)C(=O)N[C@@H](CCCNC(=N)N)C(=O)O [Example 245, H-Phenylalanyl-Lysyl-Alanyl-Tryptophyl-{(2S)-2-Amino-3-cyclohexylpropanoyl}-Leucyl-DAlanyl-Arginyl-OH] (H-FKAW[Cha]L[dA]R-OH) | 52 |
| CC(C)C[C@H](NC(=O)[C@H](CC1CCCCC1)NC(=O)[C@@H](C)NC(=O)[C@H](C)NC(=O)[C@H](CCCCN)NC(=O)[C@@H](N)Cc1ccccc1)C(=O)N[C@H](C)C(=O)N[C@@H](CCCNC(=N)N)C(=O)O [Example 247, H-Phenylalanyl-Lysyl-Alanyl-DAlanyl-{(2S)-2-Amino-3-cyclohexylpropanoyl}-Leucyl-DAlanyl-Arginyl-OH] (H-FKA[dA][Cha]L[dA]R-OH) | 330 |
| C[C@H](NC(=O)[C@H](CCCCN)NC(=O)[C@@H](N)Cc1ccccc1)C(=O)N[C@@H](CC1CCCCC1)C(=O)NCC(=O)N[C@H](Cc1c[nH]c2ccccc12)C(=O)N[C@H](C)C(=O)N[C@@H](CCCNC(=N)N)C(=O)O [Example 249, H-Phenylalanyl-Lysyl-Alanyl-{(2S)-2-Amino-3-cyclohexylpropanoyl}-Glycyl-DTryptophyl-DAlanyl-Arginyl-OH] (H-FKA[Cha]G[dW][dA]R-OH) | 110 |
| CC(C)C[C@@H]1NC(=O)[C@H](CC2CCCCC2)NC(=O)[C@H](CC2CCCCC2)NC(=O)[C@H](C)NC(=O)[C@H](CCCCN)NC(=O)[C@H](NC(=O)c2ccccc2)C(C)(C)SSC[C@H](C(=O)N[C@@H](CCCNC(=N)N)C(=O)O)NC1=O [Example 279, Benzoyl-DPenicillaminyl*-Lysyl-Alanyl-{(2S)-2-Amino-3-cyclohexylpropanoyl)-{(2S)-2-Amino-3-cyclohexylpropanoyl}-Leucyl-DCysteinyl*-Arginyl-OH] (Bz-[dPen]KA[Cha][Cha]L[dC]R-OH; disulfide 1-7) | 4000 |
| CC(C)C[C@H](NC(=O)CNC(=O)[C@@H](Cc1ccccc1)NC(=O)[C@H](C)NC(=O)[C@H](CCCCN)NC(=O)[C@@H](N)Cc1ccccc1)C(=O)N[C@H](C)C(=O)N[C@@H](CCCNC(=N)N)C(=O)O [Example 282, H-Phenylalanyl-Lysyl-Alanyl-DPhenylalanyl-Glycyl-Leucyl-DAlanyl-Arginyl-OH] (H-FKA[dF]GL[dA]R-OH) | 29 |
| CC(C)C[C@H](NC(=O)[C@H](C)NC(=O)[C@H](C)NC(=O)[C@H](CCCCN)NC(=O)[C@@H](N)Cc1ccccc1)C(=O)N[C@@H](C)C(=O)N[C@H](C)C(=O)N[C@@H](CCCNC(=N)N)C(=O)O [Example 295, H-Phenylalanyl-Lysyl-Alanyl-Alanyl-Leucyl-Alanyl-DAlanyl-Arginyl-OH] (H-FKAALA[dA]R-OH) | 3300 |
| CC(C)C[C@H](NC(=O)[C@H](C)NC(=O)[C@H](CC1CCCCC1)NC(=O)[C@H](C)NC(=O)[C@H](CCCCN)NC(=O)[C@@H](N)Cc1ccccc1)C(=O)N(C)[C@H](C)C(=O)N[C@@H](CCCNC(=N)N)C(=O)O [Example 296, H-Phenylalanyl-Lysyl-Alanyl-{(2S)-2-Amino-3-cyclohexylpropanoyl}-Alanyl-Leucyl-(N-Methyl)DAlanyl-Arginyl-OH] (H-FKA[Cha]AL[dNMeA]R-OH) | 12 |
| CC(=O)N[C@@H](Cc1ccccc1)C(=O)N[C@@H](CCCCN)C(=O)N[C@@H](C)C(=O)N[C@@H](CC1CCCCC1)C(=O)N[C@@H](C)C(=O)N[C@@H](CC(C)C)C(=O)N[C@H](C)C(=O)N[C@@H](Cc1ccc(O)cc1)C(=O)O [Example 305, Ac-Phenylalanyl-Lysyl-Alanyl-{(2S)-2-Amino-3-cyclohexylpropanoyl}-Alanyl-Leucyl-DAlanyl-Tyrosyl-OH] (Ac-FKA[Cha]AL[dA]Y-OH) | 170 |
| CC(C)C[C@H](NC(=O)CNC(=O)[C@H](CC1CCCCC1)NC(=O)[C@@H](Cc1ccccc1)NC(=O)[C@H](CCCCN)NC(=O)[C@@H](N)Cc1ccccc1)C(=O)N[C@H](C)C(=O)N[C@@H](CCCNC(=N)N)C(=O)O [Example 316, H-Phenylalanyl-Lysyl-DPhenylalanyl-{(2S)-2-Amino-3-cyclohexylpropanoyl}-Glycyl-Leucyl-DAlanyl-Arginyl-OH] (H-FK[dF][Cha]GL[dA]R-OH) | 170 |
| CC(C)C[C@H](NC(=O)[C@H](CC1CCCCC1)NC(=O)[C@H](CC1CCCCC1)NC(=O)[C@H](C)NC(=O)[C@H](CCCCN)NC(=O)[C@@H](N)Cc1cn(C=O)c2ccccc12)C(=O)N[C@H](C)C(=O)N[C@@H](CCCNC(=N)N)C(=O)O [Example 338, H-Tryptophyl(N-formyl)-Lysyl-Alanyl-{(2S)-2-Amino-3-cyclohexylpropanoyl}-{(2S)-2-Amino-3-cyclohexylpropanoyl}-Leucyl-DAlanyl-Arginyl-OH] (H-W(For)KA[Cha][Cha]L[dA]R-OH) | 500 |
| CC(C)C[C@H](NC(=O)[C@H](CC1CCCCC1)NC(=O)[C@H](CC1CCCCC1)NC(=O)[C@H](C)NC(=O)[C@H](CSCCN)NC(=O)[C@@H](N)Cc1ccccc1)C(=O)N[C@H](C)C(=O)N[C@@H](CCCNC(=N)N)C(=O)O [Example 348, H-Phenylalanyl-(S-2-Aminoethyl)Cysteinyl-Alanyl-{(2S)-2-Amino-3-cyclohexylpropanoyl}-{(2S)-2-Amino-3-cyclohexylpropanoyl}-Leucyl-DAlanyl-Arginyl-OH] (H-FC(Ethyl(2-NH2))A[Cha][Cha]L[dA]R-OH) | 140 |
| CSCC[C@H](NC(=O)[C@H](CC(=O)O)NC(=O)[C@H](CCCCN)NC(=O)[C@@H](N)Cc1ccc2ccccc2c1)C(=O)N[C@@H](CCC(N)=O)C(=O)N[C@@H](CC(C)C)C(=O)NCC(=O)N[C@@H](CCCNC(=N)N)C(=O)O [Example 377, H-{3-(2'-Naphthyl)alanyl}-Lysyl-Aspartyl-Methionyl-Glutaminyl-Leucyl-Glycyl-Arginyl-OH] (H-[2Nal]KDMQLGR-OH) | 1800 |
| CCN[C@@H](Cc1ccccc1)C(=O)N[C@@H](CCCCN)C(=O)N[C@@H](C)C(=O)N[C@@H](CC1CCCCC1)C(=O)N[C@@H](C)C(=O)N[C@@H](CC(C)C)C(=O)N(C)[C@H](C)C(=O)N[C@@H](CCCNC(=N)N)C(=O)O [Example 402, (N-Ethyl)Phenylalanyl-Lysyl-Alanyl-{(2S)-2-Amino-3-cyclohexylpropanoyl}-Alanyl-Leucyl-(N-Methyl)DAlanyl-Arginyl-OH] (H-[NEtPhe]KA[Cha]AL[dNMeA]R-OH) | 11 |
| CC(C)C[C@H](NC(=O)[C@H](C)NC(=O)[C@H](CC1CCCCC1)NC(=O)[C@H](C)NC(=O)[C@H](CCCCN)NC(=O)[C@H](Cc1ccccc1)NC(=O)OC(C)(C)C)C(=O)N[C@H](C)C(=O)N[C@@H](CCCNC(=N)N)C(=O)O [Example 404, tert-Butyloxycarbonyl-Phenylalanyl-Lysyl-Alanyl-{(2S)-2-Amino-3-cyclohexylpropanoyl}-Alanyl-Leucyl-DAlanyl-Arginyl-OH] (Boc-FKA[Cha]AL[dA]R-OH) | 130 |
| CC(C)C[C@H](NC[C@H](C)NC(=O)[C@H](CC1CCCCC1)NC(=O)[C@H](C)NC(=O)[C@H](CCCCN)NC(=O)[C@@H](N)Cc1ccccc1)C(=O)N[C@H](C)C(=O)N[C@@H](CCCNC(=N)N)C(=O)O [Example 409, H-phenylalanyl-Lysyl-Alanyl-{(2S)-2-Amino-3-Cyclohexylpropanoyl}-Alanyl-.psi.{CH2 --NH}-Leucyl-DAlanyl-Arginyl-OH] (H-FKA[Cha]-X3) | 3800 |
| CC(C)C[C@H](NC(=O)[C@H](C)NC(=O)[C@H](CC1CCCCC1)NC(=O)[C@H](C)NC(=O)[C@H](CCCCN)NC(=O)[C@@H](N)Cc1ccccc1)C(=O)N[C@H](C)CN[C@@H](CCCNC(=N)N)C(=O)O [Example 421, H-Phenylalanyl-Lysyl-Alanyl-{(2S)-2-Amino-3-cyclohexylpropanoyl}-Alanyl-Leucyl-DAlanyl-.psi.{CH2 --NH}-Arginyl-OH] (H-FKA[Cha]AL-X2) | 3200 |
| CSCC[C@H](NC(=O)[C@H](CC(=O)O)NC(=O)[C@H](CCCCN)NC(=O)[C@@H](N)Cc1ccccc1)C(=O)N[C@@H](CCCNC(=N)N)C(=O)N[C@@H](CC(C)C)C(=O)NCC(=O)N[C@@H](CCCNC(=N)N)C(=O)O [Example 424, H-Phenylalanyl-Lysyl-Aspartyl-Methionyl-Arginyl-Leucyl-Glycyl-Arginyl-OH] (H-FKDMRLGR-OH) | 480 |
| CC(C)C[C@H](NC(=O)[C@H](CCCNC(=N)N)NC(=O)[C@H](CC1CCCCC1)NC(=O)[C@H](C)NC(=O)[C@H](CCCCN)NC(=O)[C@@H](N)Cc1ccccc1)C(=O)N[C@H](C)C(=O)N[C@@H](CCCNC(=N)N)C(=O)O [Example 432, H-Phenylalanyl-Lysyl-Alanyl-{(2S)-2-Amino-3-cyclohexylpropanoyl}-Arginyl-Leucyl-DAlanyl-Arginyl-OH] (H-FKA[Cha]RL[dA]R-OH) | 30 |
| CC(C)C[C@H](NC(=O)CNC(=O)C1Cc2ccccc2CN1C(=O)[C@H](C)NC(=O)[C@H](CCCCN)NC(=O)[C@@H](N)Cc1ccccc1)C(=O)N[C@H](C)C(=O)N[C@@H](CCCNC(=N)N)C(=O)O (stereo partly shown) [Example 445, H-Phenylalanyl-Lysyl-Alanyl-{(3R/S)-1,2,3,4-Tetrahydroisoquinolin-3-carbonyl}-Glycyl-Leucyl-DAlanyl-Arginyl-OH] (H-FKA[ξTic]GL[dA]R-OH) | 260 |
